Results taken from US10883936B2, “Analysis of viable and nonviable cells” (SageMedic Corporation, priority 2018, dated 2021).

Experiments:
[1] = test system: ovarian cancer primary tumor cells; test: Confocal fluorescent microscopy of dyed primary tumor cells, dye combinations and addition sequences (Example 1); assay type: cell-based
Method: A 96 round bottom well plate was seeded with a single cell suspension of about 2,500 ovarian cancer primary tumor cells/20 μl/well at day 0. In each well, 80 μl of DMEM/2% alpha serum was added on top to the total volume of 100 μl/well. Dyes were prepared at 2-fold the desired final concentrations on the day of imaging. At day 3, 100 μL of dyeing mix was carefully added to each well to avoid disturbing the cells, to a final 1-fold concentration of dyes. Cells were incubated with dyes at 37° C. For this example, the dyes used were a membrane-permeable fluorescent dye (CYQUANT® GR, Thermo Fisher Scientific, Waltham, Mass.) and a membrane-impermeable fluorescent quenching dye (DRAQ7™, Thermo Fisher Scientific, Waltham, Mass.). The following dye combinations and sequences of dye addition were tested in triplicates, and similar results were seen among the triplicates. FIGS. 1A-1G show exemplary results of the dye combination and addition sequences, as follows.
FIG. 1A is a confocal fluorescent microscopy image of a sample prepared by incubation with the membrane-impermeable fluorescent quenching dye for 30 min followed by addition of the masking agent (Diammonium 5-[(E)-(4-acetamido-2-sulfonatophenyl)diazenyl]-6-amino-4-hydroxy-2-naphthalenesulfonate; CAS Reg. No. 302912-22-7, Thermo Fischer Scientific, Waltham, Mass.) and incubation for an additional 1 h.
FIG. 1B is a confocal fluorescent microscopy image of a sample prepared by incubation with the membrane-impermeable fluorescent quenching dye for 30 min.
FIG. 1C is a confocal fluorescent microscopy image of a sample prepared by incubation with the membrane-impermeable fluorescent quenching dye for 30 min, followed by addition of the membrane-permeable fluorescent dye and incubation for an additional 1 h.
FIG. 1D is a confocal fluorescent microscopy image of a sample prepared by incubation with the membrane-impermeable fluorescent quenching dye for 30 min, followed by addition of the membrane-permeable fluorescent dye and masking reagent and incubation for an additional 1 h.
FIG. 1E is a confocal fluorescent microscopy image of a sample prepared by incubation with the membrane-permeable fluorescent dye alone for 1 h.
FIG. 1F is a confocal fluorescent microscopy image of a sample prepared by incubation with the membrane-permeable fluorescent dye alone for 1 h, followed by addition of the membrane-impermeable fluorescent quenching dye and incubation for an additional 30 min.
FIG. 1G is a confocal fluorescent microscopy image of a sample prepared by incubation with the membrane-permeable fluorescent dye and masking reagent for 1 h, followed by addition of the membrane-impermeable fluorescent quenching dye and incubation for an additional 30 min.

[2] = test system: ovarian cancer primary tumor cells; test: Dynamic confocal fluorescent microscopy after adding quenching dye to cells pre-dyed with membrane-permeable dye (Example 2); assay type: cell-based; settings: for change of fluorescence intensity over time: 0-45 min after addition of quenching dye; for dyeing of the nonviable cells: by 45 min after addition of quenching dye
Method: In order to further examine the dyeing behavior and kinetics of the membrane-impermeable fluorescent quenching dye and the membrane-permeable fluorescent dye of Example 1 when mixed together, an additional experiment was performed on day 7 of culture as follows.
On day 7, 20 μL of the membrane-permeable fluorescent dye was added at 6× concentration to each well. The cells were incubated with dye at 37° C. for 1 hour. Confocal fluorescent microscopy was performed after incubation. About 20 μL of the membrane-impermeable fluorescent quenching dye was added directly to the same well on the stage at 6× concentration without disturbing the cells.
Dynamic confocal fluorescent microscopy images were taken of the cells immediately after addition of the membrane-impermeable fluorescent quenching dye (FIG. 2A, 2B), as well as at 5 min (FIG. 2C, 2D), 20 min (FIG. 2E, 2F), 30 min (FIG. 2G, 2H) and 45 min (FIG. 2I, 2J) after addition.

[3] = FIG. 1D: quenching dye 30 min, then membrane-permeable dye and masking reagent, additional 1 h
[4] = FIG. 1G: membrane-permeable dye and masking reagent 1 h, then quenching dye, additional 30 min
[5] = FIG. 1C: quenching dye 30 min, then membrane-permeable dye, additional 1 h
[6] = FIG. 1F: membrane-permeable dye 1 h, then quenching dye, additional 30 min

## CC(=O)Nc1ccc(/N=N/c2c(N)ccc3cc(S(=O)(=O)O)cc(O)c23)c(S(=O)(=O)O)c1.N.N [masking agent, Diammonium 5-[(E)-(4-acetamido-2-sulfonatophenyl)diazenyl]-6-amino-4-hydroxy-2-naphthalenesulfonate]
[1]; FIG. 1A: quenching dye 30 min, then masking agent, additional 1 h
  signal observed by confocal fluorescent microscopy: no signal was observed
[1]; [3]
  signal observed by confocal fluorescent microscopy: No red signal was observed
[1]; [4]
  signal observed by confocal fluorescent microscopy: No red signal was observed

## CYQUANT® GR [membrane-permeable fluorescent dye]
[1]; [5]
  signal observed by confocal fluorescent microscopy: discrete green signals
[1]; [3]
  signal observed by confocal fluorescent microscopy: discrete green signals were observed
[1]; FIG. 1E: membrane-permeable fluorescent dye alone, 1 h, 37° C.
  signal observed by confocal fluorescent microscopy: discrete green signals were observed
[1]; [6]
  signal observed by confocal fluorescent microscopy: discrete green signals
[1]; [4]
  signal observed by confocal fluorescent microscopy: discrete green signals were observed
[1]; dye alone
  cells dyed by the dye alone: dyed both viable and nonviable cells
[2]
  change of fluorescence intensity over time: significant decrease over time
  dyeing of the nonviable cells: negligible

## DRAQ7™
[1]; FIG. 1B: membrane-impermeable fluorescent quenching dye alone, 30 min, 37° C., day 3
  signal observed by confocal fluorescent microscopy: discrete red signals were observed
[1]; [5]
  signal observed by confocal fluorescent microscopy: discrete red signals were observed
[1]; [6]
  signal observed by confocal fluorescent microscopy: discrete red signals were observed
[2]
  change of fluorescence intensity over time: increase over time
  dyeing of the nonviable cells: positive
[2]; day 7, FIG. 2I, 2J
  time after addition of the dye at which the brightest images (fluorescence intensity) were acquired: 45 min
[2]; day 7, membrane-permeable dye 1 hour at 37° C., then quenching dye added
  time after addition at which green cells becoming red is visually noticeable: 20 to 30 min
